The source of these data is patent publication US20160355530A1, “HEPATITIS C INHIBITORS AND USES THEREOF” (AbbVie Inc., priority 2010, published 2016).

Usually pIC50 stands for the negative decadic logarithm of the IC50, by convention in mol/L. Low readings indicate a large IC50, high ones a small IC50. In general, pEC50 refers to the EC50 on a negative log10 scale, so that one unit is a factor of ten.

Test [1] concerns the target T1, HCV NS5B polymerase 1b Rice (Hepatitis C virus genotype 1b, UniProt Q9WMX2).
T1 construct: six-histidine tag; made in house; host or cells: E. coli
The test can be described thus: HCV NS5B polymerase enzymatic inhibition assay, strain 1b Rice. Type of test: biochemical, HCV genotype 1b. Conditions: enzyme. On the procedure:
Purified HCV NS5B polymerase enzymes were used for polymerase inhibition assays. All recombinant HCV polymerases contained the first 570 amino acids of the 591 amino acid native protein sequence and a six-histidine tag at the N-terminus or C-terminus to facilitate purification by affinity chromatography. The DNA nucleotide sequence for the HCV polymerase 1b BK strain was codon optimized for expression in E. coli. A synthetic gene was prepared from a series of overlapping oligonucleotides that were filled in using a DNA polymerase and amplified by PCR. The patient isolate HCV polymerases were cloned by RT-PCR methods using HCV RNA extracted from the serum of infected subjects obtained from ProMedDx and BioCollections (genotypes 2a, 2b, 3a, and 4a). Laboratory strains were cloned from plasmid DNA (1a-H77 or 1a-H77-C316Y) or from existing replicon cells (1b Rice). In all cases the amplified DNA was cloned into a protein expression vector (typically a pET vector from Novagen) and then multiple clones were sequenced to identify one whose NS5B sequence agreed with the population sequence. This sequence-confirmed clone was then transfected into E. coli for protein expression and purification. E. coli cultures were grown to a maximum optical density (OD) of 2-3 and then induced with 0.4 mM isopropyl beta-D-thiogalactopyranoside (IPTG) and grown for 20 hours at 20° C.
Proteins were purified using nickel affinity chromatography, and additional column steps were added including, ion exchange, size exclusion, hydrophobic ion, and poly-U affinity chromatography, as needed, depending on the sample being purified. The template RNA used in the polymerase enzymatic assay was a 2.1 kb construct that corresponds to the 3′-end of an HCV genotype 1b negative strand RNA.
The reaction was initiated by the addition of 20 μM CTP, 20 μM ATP, 0.284 μM (0.5 μCi) of 5,6-[^3H] UTP, 5 nM template RNA and 0.1 U/μL RNase inhibitor (RNasin, Promega), and allowed to proceed for three hours at 30° C. The final reaction volume was 50 μL. The reaction was terminated by the addition of 50 uL of 4 mM spermine in 10 mM Tris-HCl, pH 7.5, 1 mM EDTA. The quenched reaction was allowed to incubate for at least 15 minutes at room temperature, and then the precipitated RNA was captured by filtration through a glass fiber filter (GF/B, Millipore) in a 96 well format. The filter plate was washed five times with 200 μL of 2 mM spermine, 10 mM Tris-HCl, pH 8.0, 1 mM EDTA, and two times with ethanol. After drying thoroughly in air, 30 μL of Microscint-20 scintillation cocktail (Perkin Elmer) was added to each well, and the retained cpm were determined by scintillation counting. IC50 values were determined by nonlinear regression.
% Inhibition=100*[[I]/([I]+[IC50])] equation 1
V=kcat[S]/2(Km+[S])*(sqrt((IC50+I−E)̂2+(4*IC50*E))−(IC50+I−E)) equation 2

Test [2] has as its system HCV 1b-BB7 subgenomic replicon. The test can be described thus: microbe, parasite or virus in culture. To be noted: Hepatitis C virus, stable replicon. Type of test: cell-based, HCV genotype 1b. On the technique in general: Replicon systems follow genome replication, usually without infectious particles.
In test [3] the test system is HCV 1a-H77 subgenomic replicon. The test can be described thus: microbe, parasite or virus in culture. Type of test: cell-based, HCV genotype 1a. Conditions: Hepatitis C virus, stable replicon.
For test [4], the system named is chimeric replicon with genotype 4a NS5B. The test can be described thus: microbe, parasite or virus in culture. The format is cell-based, HCV genotype 4a. To be noted: Hepatitis C virus, read-out: 4a chimera 5% FBS EC50.
Test [5] deals with HCV 1b-Con1 subgenomic replicon. The test can be described thus: Stable replicon cell culture assay (luciferase), 1b-Con1; 5% FBS, optionally 40% human plasma. Type of test: cell-based, HCV genotype 1b. Conditions: Hepatitis C virus.
[6] abbreviates: strain 1b BB7, 5% FBS + 40% human plasma, read-out: 1b BB7 5% FBS + 40% Human Plasma EC50.
[7] abbreviates: strain 1b BB7, 5% FBS, no human plasma, read-out: 1b BB7 5% FBS EC50.
The mark [8] stands for this setting: strain 1b BB7, 5% FBS, read-out: 1b BB7 5% FBS EC50.
Where [9] appears, read: 5% FBS, absence of human plasma, read-out: Stable Replicon 1a H77 5% FBS EC50.
The mark [10] stands for this setting: strain 1a H77, 5% FBS + 40% human plasma, read-out: 1a H77 5% FBS + 40% Human Plasma EC50.
The mark [11] stands for this setting: strain 1a H77, 5% FBS, no human plasma, read-out: 1a H77 5% FBS EC50.
[12] abbreviates: strain 1a H77, 5% FBS, read-out: 1a H77 5% FBS EC50.
[13] abbreviates: strain 1b Con1, 5% FBS + 40% human plasma, read-out: 1b Con1 5% FBS + 40% Human Plasma EC50.
[14] abbreviates: strain 1b Con1, 5% FBS, no human plasma, read-out: 1b Con1 5% FBS EC50.
Setting [15] is: strain 1b Con1, 5% FBS, read-out: 1b Con1 5% FBS EC50.

pEC50, pIC50: −log10 of the molar value. Read-outs that look alike come from different tables or passages of the source.

On to `CS(=O)(=O)N(CCO)c1cc2oc(-c3ccc(F)cc3)c(-c3ncc[nH]3)c2cc1C1CC1` [Example 109, N-[5-cyclopropyl-2-(4-fluorophenyl)-3-(1H-imidazol-2-yl)-1-benzofuran-6-yl]-N-(2-hydroxyethyl)methanesulfonamide], for which the pIC50 in test [1] is 7.77. For the same molecule, the pEC50 in test [2] (setting [6]) is 6.74; in test [2] (setting [7]), 7.90; in test [2] (setting [8]), 7.90; in test [3] (setting [9]), 7.70; in test [3] (setting [10]), 6.38; in test [3] (setting [11]) it was 7.70. In addition, the pEC50 in test [3] (setting [12]) is 7.70; in test [4], 6.78.

With `CS(=O)(=O)N(CCO)c1cc2oc(-c3ccc(F)cc3)c(C3=NOCCN3)c2cc1C1CC1` [Example 136, N-[5-cyclopropyl-3-(5,6-dihydro-4H-1,2,4-oxadiazin-3-yl)-2-(4-fluorophenyl)-1-benzofuran-6-yl]-N-(2-hydroxyethyl)methanesulfonamide], the pIC50 in test [1] was 7.24. For the same molecule, the pEC50 in test [2] (setting [6]) was 6.55; in test [2] (setting [7]), 7.46; in test [2] (setting [8]), 7.46; in test [3] (setting [9]), 7.58; in test [3] (setting [10]) it was 6.46; in test [3] (setting [11]) it was 7.58. Moreover, the pEC50 in test [3] (setting [12]) is 7.58; in test [4], 6.54.

Turning to `CCCC/C=C/c1ccc(-c2oc3cc(N(CCCCS(C)(=O)=O)S(C)(=O)=O)c(C4CC4)cc3c2-c2ncc[nH]2)cc1` [Example 168, N-[5-cyclopropyl-2-{4-[(1E)-hex-1-en-1-yl]phenyl}-3-(1H-imidazol-2-yl)-1-benzofuran-6-yl]-N-[4-(methylsulfonyl)butyl]methanesulfonamide], the pIC50 in test [1] is 8.31. The pEC50 is 7.61 in test [5] (setting [13]); 8.47 in test [5] (setting [14]); 8.47 in test [5] (setting [15]); 8.74 in test [3] (setting [9]); 7.74 in test [3] (setting [10]); 8.74 in test [3] (setting [11]). The pEC50 is 8.74 in test [3] (setting [12]) and 7.84 in test [4].

In turn, `CS(=O)(=O)CCCCN(c1cc2oc(-c3ccc(Nc4ccccc4)cc3)c(-c3ncc[nH]3)c2cc1C1CC1)S(C)(=O)=O` [Example 169, N-[2-(4-anilinophenyl)-5-cyclopropyl-3-(1H-imidazol-2-yl)-1-benzofuran-6-yl]-N-[4-(methylsulfonyl)butyl]methanesulfonamide] gave a pIC50 in test [1] of 8.03. Moreover, the pEC50 in test [5] (setting [13]) was 7.46; in test [5] (setting [14]), 8.30; in test [5] (setting [15]), 8.35; in test [3] (setting [9]) it was 8.68; in test [3] (setting [10]), 7.83; in test [3] (setting [11]) it was 8.68. Besides, the pEC50 is 8.67 in test [3] (setting [12]) and 8.37 in test [4].
